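Where inhibition never reached the appropriate level, the endpoint shown equals the highest concentration tested. Otherwise, values were interpolated linearly from a five-concentration, 48-hour dose response in 96-well plates. GI50 is the concentration that inhibits growth by half. TGI marks complete inhibition of growth.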 Where only a bound is given, the exact number is not on record here.

Drawing on PubChem BioAssay (NCI), this text covers TGI and GI50 for seven compounds.

Common to all, as to assay: NCI tumour cell line growth inhibition, 48 h
Experiment [1] relates to HOP-18 NSCLC.
Experiment [2] deals with P388 leukemia.
Experiment [3] relates to P388/ADR leukemia.
The subject of experiment [4] is SN12K1 renal.

Take `CC1=C2C3OC(=O)C(C)C3CCC2(C)C=CC1=Nc1ccccc1` (configuration not stated): the TGI in experiment [1], in experiment [2], in experiment [3] and in experiment [4] was above 100 µM in each case.
Turning to `CN(C(=O)c1ccc(OCCCC(=O)O)c(Cl)c1Cl)C1CCCC1`, the TGI in experiment [1], in experiment [2], in experiment [3] and in experiment [4] was above 100 µM in each case.
In the case of `O=c1c([OH2+])c(-c2ccc(O)cc2[O-])oc2cc(O)cc([O-])c12.O=c1c([OH2+])c(-c2ccc(O)cc2[O-])oc2cc(O)cc([O-])c12.[Ti+4]`, in experiment [1], the GI50 is above 100 µM and the TGI was above 100 µM.
With `C=C1Cc2cc(OC)c(OC)c(OC)c2-c2ccc(SC)c(=O)cc21`, the TGI in experiment [1] turned out to be 11.9 µM.
Still for that read-out and setting: as for `CN(C(=O)c1ccco1)C(=S)N1CCN(c2ccccn2)CC1`, the figure is above 100 µM.
For `CCCCCCCCOC(=O)c1cc([N+](=O)[O-])c(Sc2ncnc3nc[nH]c23)c([N+](=O)[O-])c1`, the TGI in experiment [1] was 11.1 µM; in experiment [2], 0.447 µM; in experiment [3], 0.458 µM; in experiment [4], 2.64 µM.
`COC(=O)C1C=CCON2CCc3c(n(S(=O)(=O)c4ccccc4)c4ccccc34)C12` (configuration not stated) had a TGI in experiment [1] above 100 µM.
